± gives the expanded uncertainty stated by the source.
Assay: xn = mol fraction of the nth substance listed
Settings: 101 kPa, Liquid; for speed of sound: Single path-length method

COC(C)(C)C [2-methoxy-2-methylpropane] + Cc1ccccc1
Settings	mass density [kg/m3]	speed of sound [m/s]
305.65 K, x1 = 0.053	848.195 ± 0.42	–
305.65 K, x1 = 0.116	840.022 ± 0.43	–
305.65 K, x1 = 0.199	829.282 ± 0.45	–
305.65 K, x1 = 0.301	816.062 ± 0.47	–
305.65 K, x1 = 0.371	807.159 ± 0.48	–
305.65 K, x1 = 0.463	795.249 ± 0.49	–
305.65 K, x1 = 0.61	776.592 ± 0.52	–
305.65 K, x1 = 0.688	766.747 ± 0.54	–
305.65 K, x1 = 0.797	752.961 ± 0.56	–
305.65 K, x1 = 0.902	739.7 ± 0.57	–
305.65 K, x1 = 0.943	734.343 ± 0.58	–
305.65 K, x1 = 1	726.444 ± 0.58	–
308.15 K, x1 = 0.053	845.842 ± 0.42	1245.8 ± 2.1
308.15 K, x1 = 0.116	837.654 ± 0.43	1228.3 ± 2.1
308.15 K, x1 = 0.199	826.891 ± 0.45	1207.5 ± 2.1
308.15 K, x1 = 0.301	813.64 ± 0.47	1180.9 ± 2.1
308.15 K, x1 = 0.371	804.72 ± 0.48	1161.8 ± 2.1
308.15 K, x1 = 0.463	792.78 ± 0.5	1137.8 ± 2.1
308.15 K, x1 = 0.61	774.07 ± 0.52	1098.8 ± 2.1
308.15 K, x1 = 0.688	764.201 ± 0.54	1077.9 ± 2.1
308.15 K, x1 = 0.797	750.369 ± 0.56	1049 ± 2.1
308.15 K, x1 = 0.902	737.069 ± 0.58	1020.4 ± 2.1
308.15 K, x1 = 0.943	731.692 ± 0.59	1008 ± 2.1
308.15 K, x1 = 1	723.763 ± 0.58	990.99 ± 2.1
310.65 K, x1 = 0.053	843.486 ± 0.43	1235.2 ± 2.1
310.65 K, x1 = 0.116	835.279 ± 0.44	1217.6 ± 2.1
310.65 K, x1 = 0.199	824.494 ± 0.45	1196.7 ± 2.1
310.65 K, x1 = 0.301	811.214 ± 0.47	1170.1 ± 2.1
310.65 K, x1 = 0.371	802.273 ± 0.48	1150.9 ± 2.1
310.65 K, x1 = 0.463	790.303 ± 0.5	1126.8 ± 2.1
310.65 K, x1 = 0.61	771.541 ± 0.53	1087.7 ± 2.1
310.65 K, x1 = 0.688	761.642 ± 0.54	1066.9 ± 2.1
310.65 K, x1 = 0.797	747.769 ± 0.56	1037.9 ± 2.1
310.65 K, x1 = 0.902	734.423 ± 0.58	1009.1 ± 2.1
310.65 K, x1 = 0.943	729.029 ± 0.59	996.73 ± 2.1
310.65 K, x1 = 1	721.069 ± 0.59	979.62 ± 2.1
313.15 K, x1 = 0.053	841.124 ± 0.43	1224.5 ± 2.1
313.15 K, x1 = 0.116	832.902 ± 0.44	1207 ± 2.1
313.15 K, x1 = 0.199	822.092 ± 0.46	1186 ± 2.1
313.15 K, x1 = 0.301	808.78 ± 0.47	1159.3 ± 2.1
313.15 K, x1 = 0.371	799.819 ± 0.49	1140.1 ± 2.1
313.15 K, x1 = 0.463	787.815 ± 0.51	1115.9 ± 2.1
313.15 K, x1 = 0.61	769.004 ± 0.53	1076.7 ± 2.1
313.15 K, x1 = 0.688	759.075 ± 0.55	1055.9 ± 2.1
313.15 K, x1 = 0.797	745.157 ± 0.57	1026.8 ± 2.1
313.15 K, x1 = 0.902	731.765 ± 0.59	997.95 ± 2.1
313.15 K, x1 = 0.943	726.353 ± 0.6	985.49 ± 2.1
313.15 K, x1 = 1	718.357 ± 0.59	968.16 ± 2.1
315.65 K, x1 = 0.053	838.757 ± 0.43	1214 ± 2.1
315.65 K, x1 = 0.116	830.517 ± 0.45	1196.4 ± 2.1
315.65 K, x1 = 0.199	819.682 ± 0.46	1175.3 ± 2.1
315.65 K, x1 = 0.301	806.341 ± 0.48	1148.5 ± 2.1
315.65 K, x1 = 0.371	797.359 ± 0.49	1129.3 ± 2.1
315.65 K, x1 = 0.463	785.32 ± 0.51	1105 ± 2.1
315.65 K, x1 = 0.61	766.457 ± 0.54	1065.8 ± 2.1
315.65 K, x1 = 0.688	756.499 ± 0.55	1044.9 ± 2.1
315.65 K, x1 = 0.797	742.532 ± 0.57	1015.6 ± 2.1
315.65 K, x1 = 0.902	729.096 ± 0.59	986.8 ± 2.1
315.65 K, x1 = 0.943	723.661 ± 0.6	974.25 ± 2.1
315.65 K, x1 = 1	715.636 ± 0.6	956.8 ± 2.1
318.15 K, x1 = 0.053	836.384 ± 0.44	1203.4 ± 2.1
318.15 K, x1 = 0.116	828.127 ± 0.45	1185.8 ± 2.1
318.15 K, x1 = 0.199	817.267 ± 0.46	1164.7 ± 2.1
318.15 K, x1 = 0.301	803.893 ± 0.48	1137.8 ± 2.1
318.15 K, x1 = 0.371	794.887 ± 0.49	1118.5 ± 2.1
318.15 K, x1 = 0.463	782.821 ± 0.51	1094.2 ± 2.1
318.15 K, x1 = 0.61	763.899 ± 0.54	1054.8 ± 2.1
318.15 K, x1 = 0.688	753.908 ± 0.55	1033.8 ± 2.1
318.15 K, x1 = 0.797	739.897 ± 0.57	1004.6 ± 2.1
318.15 K, x1 = 0.902	726.409 ± 0.59	975.59 ± 2.1
318.15 K, x1 = 0.943	720.958 ± 0.6	963 ± 2.1
318.15 K, x1 = 1	712.897 ± 0.6	945.54 ± 2.1
320.65 K, x1 = 0.053	834.008 ± 0.44	1192.9 ± 2.1
320.65 K, x1 = 0.116	825.73 ± 0.45	1175.2 ± 2.1
320.65 K, x1 = 0.199	814.847 ± 0.47	1154.1 ± 2.1
320.65 K, x1 = 0.301	801.438 ± 0.49	1127 ± 2.1
320.65 K, x1 = 0.371	792.407 ± 0.5	1107.7 ± 2.1
320.65 K, x1 = 0.463	780.31 ± 0.52	1083.4 ± 2.1
320.65 K, x1 = 0.61	761.327 ± 0.54	1043.8 ± 2.1
320.65 K, x1 = 0.688	751.303 ± 0.56	1022.8 ± 2.1
320.65 K, x1 = 0.797	737.246 ± 0.58	993.5 ± 2.1
320.65 K, x1 = 0.902	723.713 ± 0.6	964.4 ± 2.1
320.65 K, x1 = 0.943	718.237 ± 0.61	951.77 ± 2.1
320.65 K, x1 = 1	710.141 ± 0.6	934.24 ± 2.1
323.15 K, x1 = 0.053	831.624 ± 0.44	1182.4 ± 2.1
323.15 K, x1 = 0.116	823.329 ± 0.46	1164.6 ± 2.1
323.15 K, x1 = 0.199	812.42 ± 0.47	1143.5 ± 2.1
323.15 K, x1 = 0.301	798.979 ± 0.49	1116.4 ± 2.1
323.15 K, x1 = 0.371	789.92 ± 0.5	1097 ± 2.1
323.15 K, x1 = 0.463	777.787 ± 0.52	1072.5 ± 2.1
323.15 K, x1 = 0.61	758.745 ± 0.55	1032.9 ± 2.1
323.15 K, x1 = 0.688	748.686 ± 0.56	1011.9 ± 2.1
323.15 K, x1 = 0.797	734.592 ± 0.58	982.48 ± 2.1
323.15 K, x1 = 0.902	721 ± 0.6	953.28 ± 2.1
323.15 K, x1 = 0.943	715.503 ± 0.61	940.59 ± 2.1
323.15 K, x1 = 1	707.381 ± 0.61	922.97 ± 2.1

From the NIST ThermoML archive (doi:10.1007/s10765-007-0223-x)
